Measured values published in patent US20160317632A1, “USE OF CBP/EP300 BROMODOMAIN INHIBITORS FOR CANCER IMMUNOTHERAPY” (GENENTECH, INC., priority 2013, published 2016).

Legend:
Assay type in all cases: cell-based, human
iTreg cells [1] = assay: Foxp3 expression in iTreg differentiating cells by q-RT-PCR (FIG. 7)
Protocol: (§1) Naïve CD4+CD45RA+ T cells were isolated from healthy human PBMCs using Miltenyi Biotec naïve human T cell isolation kit (cat#130-094-131). Isolated cells were cultured at 10e6 cells/ml under iTreg-differentiation conditions using Dynabeads (Invitrogen; cat#11132D) at 1:1 ratio of beads to cells+human recombinant IL-2 (10 ng/ml) (R&D, cat#202-IL-010)+human recombinant TGFb (10 ng/ml) (Invitrogen; cat# PHG9204). After 16 hours the CBP inhibitors CBP/EP300(3) and CBP/EP300(4) were added using DMSO as control. CD8+ T cells were isolated from healthy human PBMCs using Militenyi Biotec human CD8 T cell isolation kit (cat#130-095-236) and cultured at 10e6 cells/ml with human T activator Dynabeads at 1:1 ratio of cells to cells with the addition of 10 ng/ml of recombinant human IL-2. 3 days after CD8+ T cell stimulation supernatants were collected and analyzed for CD8+ T cell associated effector function cytokines IFNg and TNFα by Luminex. […]
3 days after CD8+ T cell stimulation mRNA was extracted using mRNA Catcher™ PLUS Purification Kit (Invitrogen; K1570-02). Gene expression of Lag3, CTLA4 and TIM3, genes encoding inhibitory receptors on the surface of CD8+ T cells and under the transcriptional control of CBP/p300, was analyzed by q-RT-PCR. Foxp3 expression and Granzyme B (GZMB) expression, a gene encoding effector function of CD8+ T cells, were also analyzed by q-RT-PCR. […]

iTreg cells [2] = assay: Foxp3 protein expression in iTreg cells by flow cytometry (FIG. 8); details: 4 days after stimulation
Protocol: as §1
Cells from iTreg cultures were first stained with CD4 APC-CY7 and CD25 Pacific blue (both from BD pharmigen, cat#557811 and 560355, respectively); this was followed by fixation/permeabilization step and staining for intracellular Foxp3 FITC using human Foxp3 staining kit (eBioscience; cat#77-5774-40) according to the manufacturer protocol. FOXP3 expression by FACS was typically measured 4 d post-activation.

CD8+ T cells [3] = assay: gene expression in stimulated CD8+ T cells by q-RT-PCR (FIGS. 9-10); details: for expression of LAG3, TIM3 and CTLA4: FIG. 9; for GZMB expression (effector function of CD8+ T cells): FIG. 10
Protocol: (§2) Naïve CD4+CD45RA+ T cells were isolated from healthy human PBMCs using Miltenyi Biotec naïve human T cell isolation kit (cat#130-094-131). Isolated cells were cultured at 10e6 cells/ml under iTreg-differentiation conditions using Dynabeads (Invitrogen; cat#11132D) at 1:1 ratio of beads to cells+human recombinant IL-2 (10 ng/ml) (R&D, cat#202-IL-010)+human recombinant TGFb (10 ng/ml) (Invitrogen; cat# PHG9204). After 16 hours the CBP inhibitors CBP/EP300(3) and CBP/EP300(4) were added using DMSO as control. CD8+ T cells were isolated from healthy human PBMCs using Militenyi Biotec human CD8 T cell isolation kit (cat#130-095-236) and cultured at 10e6 cells/ml with human T activator Dynabeads at 1:1 ratio of cells to cells with the addition of 10 ng/ml of recombinant human IL-2. 3 days after CD8+ T cell stimulation supernatants were collected and analyzed for CD8+ T cell associated effector function cytokines IFNg and TNFα by Luminex. Data in FIG. 10 show IFNγ (A) and TNFα (B) (pg/ml) secreted in the supernatants of CD8+ T cells stimulated with compounds CBP/EP300(3) and CBP/EP300(4), using DMSO as control.
3 days after CD8+ T cell stimulation mRNA was extracted using mRNA Catcher™ PLUS Purification Kit (Invitrogen; K1570-02). Gene expression of Lag3, CTLA4 and TIM3, genes encoding inhibitory receptors on the surface of CD8+ T cells and under the transcriptional control of CBP/p300, was analyzed by q-RT-PCR. Foxp3 expression and Granzyme B (GZMB) expression, a gene encoding effector function of CD8+ T cells, were also analyzed by q-RT-PCR. Beta-2-microglobulin (B2M) was used as house-keeping gene.

CD8+ T cells [4] = assay: IFNγ and TNFα in supernatants of stimulated CD8+ T cells by Luminex; details: supernatants 3 days after stimulation
Protocol: as §2

C[C@H]1Nc2c(cccc2C(=O)NCCCN2CCOc3ccccc32)NC1=O [CBP/EP300(3)]
Foxp3 expression, fold change over unstimulated naïve T cells (iTreg cells [1]): decrease Foxp3 expression in iTreg cells in a dose dependent manner | Foxp3 protein expression (iTreg cells [2]): decrease Foxp3 protein expression in iTreg cells | expression of LAG3, TIM3 and CTLA4 (CD8+ T cells [3]): dose-dependent reduction in the expression of LAG3, TIM3 and CTLA4 | GZMB expression (effector function of CD8+ T cells) (CD8+ T cells [3]): did not affect effector function of CD8+ T cells | cytokine production (IFNγ, TNFα) by CD8+ T cells (CD8+ T cells [4]): minimally affect

COc1ccc2c(c1)N(CCCNC(=O)c1cccc3c1N[C@H](C)C(=O)N3)CCC2 [CBP/EP300(4)]
Foxp3 expression, fold change over unstimulated naïve T cells (iTreg cells [1]): decrease Foxp3 expression in iTreg cells in a dose dependent manner | Foxp3 protein expression (iTreg cells [2]): decrease Foxp3 protein expression in iTreg cells | expression of LAG3, TIM3 and CTLA4 (CD8+ T cells [3]): dose-dependent reduction in the expression of LAG3, TIM3 and CTLA4 | GZMB expression (effector function of CD8+ T cells) (CD8+ T cells [3]): did not affect effector function of CD8+ T cells | cytokine production (IFNγ, TNFα) by CD8+ T cells (CD8+ T cells [4]): minimally affect
